Assay results from BindingDB's records for doi:10.1021/jm300844m (The University of Newcastle, 2013).

Assay: Inhibition of dyn2 in human U2OS cells assessed as clathrin-mediated endocytosis of Tfn after 30 mins

Compound	IC50
CCCCCCCCNCc1cn(CCCN(C)C)c2ccccc12	3.5 µM
CCCCCCCCNC(=O)/C(C#N)=C/c1cn(CCCN(C)C)c2ccccc12 [2-Cyano-N-octyl-3-(1-(3-dimethylaminopropyl)-1H-indol-3-yl)-acrylamide]	5 µM
